Measurements reported in PubChem BioAssay (NCI).
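In this assay, cells in 96-well plates receive the compound at five concentrations for 48 hours. Endpoints are linearly interpolated between the surrounding concentrations. TGI marks complete inhibition of growth.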

Key:
Test in all cases: growth of human tumour cells (NCI), 48 h
HL-60(TB) leukemia = tested on: HL-60(TB) leukemia
RXF 393 renal = tested on: RXF 393 renal
NCI/ADR-RES ovarian = tested on: NCI/ADR-RES ovarian
SK-MEL-2 melanoma = tested on: SK-MEL-2 melanoma
PC-3 prostate = tested on: PC-3 prostate
SK-OV-3 ovarian = tested on: SK-OV-3 ovarian
A498 renal = tested on: A498 renal
OVCAR-4 ovarian = tested on: OVCAR-4 ovarian
SF-295 CNS = tested on: SF-295 CNS
CCRF-CEM leukemia = tested on: CCRF-CEM leukemia
MDA-N = tested on: MDA-N
SF-539 CNS = tested on: SF-539 CNS
UACC-257 melanoma = tested on: UACC-257 melanoma
TK-10 renal = tested on: TK-10 renal
MDA-MB-231 breast = tested on: MDA-MB-231 breast
SW-620 colon = tested on: SW-620 colon
DU-145 prostate = tested on: DU-145 prostate
HCT-116 colon = tested on: HCT-116 colon
LOX IMVI melanoma = tested on: LOX IMVI melanoma
OVCAR-3 ovarian = tested on: OVCAR-3 ovarian

| Compound | TGI (HL-60(TB) leukemia) | TGI (RXF 393 renal) | TGI (NCI/ADR-RES ovarian) | TGI (SK-MEL-2 melanoma) | TGI (PC-3 prostate) | TGI (SK-OV-3 ovarian) | TGI (A498 renal) | TGI (OVCAR-4 ovarian) | TGI (SF-295 CNS) | TGI (CCRF-CEM leukemia) | TGI (MDA-N) | TGI (SF-539 CNS) | TGI (UACC-257 melanoma) | TGI (TK-10 renal) | TGI (MDA-MB-231 breast) | TGI (SW-620 colon) | TGI (DU-145 prostate) | TGI (HCT-116 colon) | TGI (LOX IMVI melanoma) | TGI (OVCAR-3 ovarian) |
| --- | --- | --- | --- | --- | --- | --- | --- | --- | --- | --- | --- | --- | --- | --- | --- | --- | --- | --- | --- | --- |
| NC(=O)ON=C1CCN(Cc2ccccc2)CC1 | > 100 µM | > 100 µM | > 100 µM | > 100 µM | > 100 µM | > 100 µM | > 100 µM | > 100 µM | > 100 µM | > 100 µM | > 100 µM | > 100 µM | > 100 µM | > 100 µM | > 100 µM | > 100 µM | > 100 µM | > 100 µM | > 100 µM | > 100 µM |
| O=C(O)c1cnccc1-c1cc(=O)[nH]n1-c1ccccc1 | > 87 µM | > 100 µM | > 100 µM | > 100 µM | > 100 µM | > 100 µM | > 100 µM | > 100 µM | > 63.8 µM | > 100 µM | > 100 µM | > 71.2 µM | > 100 µM | > 100 µM | > 100 µM | > 100 µM | > 100 µM | > 100 µM | > 100 µM | > 100 µM |
| C/C=C1/CN2CCC34C5=CC(=O)C(c6cc7c(cc6OC)N(C)C6=C(C(=O)OC)CC8(CC)CCCN9CCC67C98)=CC5=NC23CCC1C4C(=O)OC (stereo not given) | 4.22 µM | 23.3 µM | 54.3 µM | 30.6 µM | 26 µM | 30.9 µM | 30.2 µM | 27.1 µM | 31.6 µM | 5.99 µM | 27 µM | 28 µM | 27.1 µM | 30.9 µM | 23.5 µM | 21.8 µM | 37.2 µM | 23.1 µM | 31 µM | 27.4 µM |
| C#CCn1c(=O)c(C)cn(/C(=C/C(=O)OCC)C(=O)OCC)c1=O | > 100 µM | 2.01 µM | 10.6 µM | 27.2 µM | 25.7 µM | > 63.1 µM | 31.5 µM | 19.3 µM | 40.5 µM | 13.5 µM | 43.8 µM | 4.77 µM | 28.8 µM | 4.29 µM | 36.3 µM | 4.16 µM | 29.5 µM | 13.7 µM | 29.8 µM | 19.6 µM |
| COc1ccc2cc(-c3ccc(OC)c(OC)c3)c(=O)oc2c1 | > 100 µM | 68.3 µM | > 100 µM | > 100 µM | > 100 µM | > 100 µM | > 100 µM | > 100 µM | > 100 µM | > 100 µM | > 100 µM | > 100 µM | > 100 µM | > 100 µM | > 100 µM | > 100 µM | > 100 µM | > 100 µM | > 100 µM | > 100 µM |
| Cc1cc2c(cc1Cl)SC(NN(C)C)=NS2(=O)=O | > 10 µM | > 10 µM | > 10 µM | > 10 µM | > 10 µM | > 10 µM | > 10 µM | > 10 µM | > 10 µM | > 10 µM | > 10 µM | > 10 µM | > 10 µM | > 10 µM | > 10 µM | > 10 µM | > 10 µM | > 10 µM | > 10 µM | > 10 µM |
| CCN(CC)CC(O)CNc1ccc(NCC(O)CCl)c2c1C(=O)c1ccccc1C2=O (stereo not given) | 11.3 µM | 26.6 µM | 17.3 µM | 26.2 µM | 19.8 µM | 39.1 µM | 21 µM | 16.1 µM | 22.1 µM | 11.4 µM | 19.7 µM | 19.1 µM | 16 µM | 25.5 µM | 27.8 µM | 14.4 µM | 29.3 µM | 14.5 µM | 2.17 µM | 19.3 µM |
| Cc1nc2ccc(N=Nc3c(O)ccc4ccccc34)cc2[nH]1 | 46.8 µM | > 57.9 µM | 60.2 µM | > 76.8 µM | 48.1 µM | > 100 µM | > 92.7 µM | 35.1 µM | > 100 µM | > 58.3 µM | 36.7 µM | > 62.3 µM | > 63.5 µM | > 100 µM | 53.6 µM | > 70 µM | > 100 µM | > 58.4 µM | 32.4 µM | > 56.2 µM |
| CCOC(=O)c1c(NS(=O)(=O)c2ccc(Br)cc2)sc2c1CCCC2 | > 100 µM | 6.98 µM | 3.72 µM | 13.5 µM | 11.5 µM | 50 µM | 42.2 µM | > 100 µM | 8.39 µM | > 100 µM | 52.9 µM | 19.8 µM | 47.5 µM | 31.9 µM | 16.1 µM | 30.6 µM | > 58 µM | 21.1 µM | 27.3 µM | 9.9 µM |
